Assay results reported in the supplement of paper PMC11208160.

Experiment: recombinant UMI read abundance after kanamycin selection (control-corrected) (log10(CPM+1)); higher = more efficient recombination; extreme values may be limits of the assay; sequences stand for … in AGTGCAGAGAAAATCGGCCAGTTTTCTCTGCCTGCAGTCCGCATGCCGTGGGACCCCTTGGGTTCTAACCTGTTGCCTAGATTTATGCAGCGGACTGCCTTTCTCCCAAAGTGATAAACCGG…AGGTTGGTTTCACT; site = the 11-nt donor
Method in brief: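 In a pooled Escherichia coli screen for the IS621 bridge recombinase, donor and donor-binding-loop pairs were each placed with a 12-nt UMI on a plasmid bearing a promoterless kanamycin gene. This library was co-electroporated with a target plasmid encoding a fixed target and T7-inducible recombinase, and cells were plated either on IPTG (0.07 mM) plus kanamycin or without selection, in two replicates each. Recombinant UMIs were PCR-amplified across the donor–target junction and sequenced, and counts were converted to CPM, averaged over replicates, scaled by control-derived factors and reported as log10(CPM+1).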
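Also: IS621 bridge recombinase in Escherichia coli cells against a fixed T5 target plasmid.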

Sequence	recombinant UMI read abundance (log10)
TTAGCTGCATGGACCGGTTTTCCCGGTAATCCGTATTTGTG (site TTAGCTTCTCA)	0.00647
TTAGCTGCATGGACCGGTTTTCCCGGTAATCCGTATTTGTG (site TTAGGTGCTCA)	0.0094
TTAGCTGCATGGACCGGTTTTCCCGGTAATCCGTATTTGTG (site TTAGTTGCTCA)	0.00547
TTAGCTGCATGGACCGGTTTTCCCGGTAATCCGTATTTGTG (site TTATCTGCTCA)	0.0225
TTAGCTGCATGGACCGGTTTTCCCGGTAATCCGTATTTGTG (site TTCGCTGCTCA)	0.00425
TTAGCTGCATGGACCGGTTTTCCCGGTAATCCGTATTTGTG (site TTGGCTGCTCA)	0.0755
TTAGCTGCATGGACCGGTTTTCCCGGTAATCCGTATTTGTG (site TTTGCTGCTCA)	0.00733
TTAGGTGCATGGACCGGTTTTCCCGGTAATCCGTATTTGGT (site TTAGGTGCTAC)	1.17
TTAGGTGCATGGACCGGTTTTCCCGGTAATCCGTATTTGTG (site TTAGATGCTCA)	0.787
TTAGGTGCATGGACCGGTTTTCCCGGTAATCCGTATTTGTG (site TTAGCTGCTCA)	0.0453
TTAGGTGCATGGACCGGTTTTCCCGGTAATCCGTATTTGTG (site TTAGGTGCTCA)	0.831
TTAGGTGCATGGACCGGTTTTCCCGGTAATCCGTATTTGTG (site TTAGTTGCTCA)	0.0384
TTAGTAACATGGACCGGTTTTCCCGGTAATCCGTATTTGAC (site CTAGTATCTGT)	1.07
TTAGTAACATGGACCGGTTTTCCCGGTAATCCGTATTTGAC (site TTAGTAACTGT)	2.16
TTAGTATCATGGACCGGTTTTCCCGGTAATCCGTATTTGCA (site ACAGTATCTTG)	1.99
TTAGTATCATGGACCGGTTTTCCCGGTAATCCGTATTTGCA (site TTAGTATCTTG)	1.42
TTAGTCTCATGGACCGGTTTTCCCGGTAATCCGTATTTGAT (site TTAGTCTCTAT)	2.82
TTAGTTACATGGACCGGTTTTCCCGGTAATCCGTATTTGCC (site TTAGTTACTGG)	2.18
TTATACTCATGGACCGGTTTTCCCGGTAATCCGTATTTGCA (site TAATACTCTTG)	1.93
TTATACTCATGGACCGGTTTTCCCGGTAATCCGTATTTGCA (site TCATACTCTTG)	1.9
TTATACTCATGGACCGGTTTTCCCGGTAATCCGTATTTGCA (site TGATACTCTTG)	2.05
TTATACTCATGGACCGGTTTTCCCGGTAATCCGTATTTGCA (site TTATACTCTTG)	2.72
TTATCATCATGGACCGGTTTTCCCGGTAATCCGTATTTGAG (site TTATCATCTCT)	0.385
TTATGACCATGGACCGGTTTTCCCGGTAATCCGTATTTGAC (site TTATGACCTGT)	0
TTATGCACATGGACCGGTTTTCCCGGTAATCCGTATTTGGC (site TTATGCACTGC)	1.93

Sequence	recombinant UMI read abundance (log10)
TTATGTCCATGGACCGGTTTTCCCGGTAATCCGTATTTGTA (site TTATGTCCTTA)	0.134
TTATGTCCATGGACCGGTTTTCCCGGTAATCCGTATTTGTC (site TTATGTCCTGA)	0.363
TTCAAACCATGGACCGGTTTTCCCGGTAATCCGTATTTGCG (site TTCAAACCTCG)	0
TTCAAGACATGGACCGGTTTTCCCGGTAATCCGTATTTGCC (site TTCAAGACTGG)	0
TTCACCGCATGGACCGGTTTTCCCGGTAATCCGTATTTGCG (site TACACCGCTCG)	0.00969
TTCACCGCATGGACCGGTTTTCCCGGTAATCCGTATTTGCG (site TCCACCGCTCG)	0.017
TTCACCGCATGGACCGGTTTTCCCGGTAATCCGTATTTGCG (site TGCACCGCTCG)	0.0109
TTCACCGCATGGACCGGTTTTCCCGGTAATCCGTATTTGCG (site TTCACCGCTCG)	0.0246
TTCACCTCATGGACCGGTTTTCCCGGTAATCCGTATTTGGT (site TTCACCTCTAC)	0
TTCACTACATGGACCGGTTTTCCCGGTAATCCGTATTTGAG (site TTCACTACTCT)	0.00204
TTCACTCCATGGACCGGTTTTCCCGGTAATCCGTATTTGAG (site TTCACTCCTCT)	0
TTCATTGCATGGACCGGTTTTCCCGGTAATCCGTATTTGAA (site TTCATTGCTTT)	0
TTCCACCCATGGACCGGTTTTCCCGGTAATCCGTATTTGAC (site TTCCACCCTGT)	0
TTCCCTTCATGGACCGGTTTTCCCGGTAATCCGTATTTGCA (site TTCCCTTCTTG)	0
TTCCGCTCATGGACCGGTTTTCCCGGTAATCCGTATTTGTG (site TTCCGCTCTCA)	0
TTCCTTTCATGGACCGGTTTTCCCGGTAATCCGTATTTGAT (site TTCCTTTCTAT)	0
TTCGACCCATGGACCGGTTTTCCCGGTAATCCGTATTTGGC (site TTCGACCCTGC)	0
TTCGACTCATGGACCGGTTTTCCCGGTAATCCGTATTTGAC (site TTCGACTCTGT)	1.03
TTCGACTCATGGACCGGTTTTCCCGGTAATCCGTATTTGTT (site TTCGACTCTAA)	1.01
TTCGCGCCATGGACCGGTTTTCCCGGTAATCCGTATTTGTA (site TTCGCGCCTTA)	0.00689
TTCGCTGCATGGACCGGTTTTCCCGGTAATCCGTATTTGGG (site TTCGCTGCTCC)	0.00922
TTCGGTGCATGGACCGGTTTTCCCGGTAATCCGTATTTGCC (site TTCGGTGCTGG)	0
TTCGGTTCATGGACCGGTTTTCCCGGTAATCCGTATTTGAC (site TTCGGTTCTGT)	0
TTCGGTTCATGGACCGGTTTTCCCGGTAATCCGTATTTGGA (site TTCGGTTCTTC)	0
TTCTAAACATGGACCGGTTTTCCCGGTAATCCGTATTTGCA (site TTCTAAACTTG)	2.65

Sequence	recombinant UMI read abundance (log10)
TTCTATTCATGGACCGGTTTTCCCGGTAATCCGTATTTGCT (site TTCTATTCTAG)	0
TTCTCAGCATGGACCGGTTTTCCCGGTAATCCGTATTTGAG (site TTCTCAGCTCT)	0.00607
TTCTCTCCATGGACCGGTTTTCCCGGTAATCCGTATTTGAA (site TTCTCTCCTTT)	0.019
TTCTTGACATGGACCGGTTTTCCCGGTAATCCGTATTTGTG (site TTCTTGACTCA)	0.0069
TTGAATCCATGGACCGGTTTTCCCGGTAATCCGTATTTGGA (site TTGAATCCTTC)	0.123
TTGACCCCATGGACCGGTTTTCCCGGTAATCCGTATTTGAT (site TTGACCCCTAT)	0.347
TTGACGTCATGGACCGGTTTTCCCGGTAATCCGTATTTGTT (site TTGACGTCTAA)	0.101
TTGAGAACATGGACCGGTTTTCCCGGTAATCCGTATTTGAC (site TTGAGAACTGT)	0.447
TTGAGAACATGGACCGGTTTTCCCGGTAATCCGTATTTGCC (site TTGAGAACTGG)	1.36
TTGATCTCATGGACCGGTTTTCCCGGTAATCCGTATTTGCG (site TTGATCTCTCG)	1.95
TTGCAGCCATGGACCGGTTTTCCCGGTAATCCGTATTTGCT (site TTGCAGCCTAG)	0.0502
TTGCATGCATGGACCGGTTTTCCCGGTAATCCGTATTTGCA (site TTGCATGCTTG)	0
TTGCCGGCATGGACCGGTTTTCCCGGTAATCCGTATTTGGC (site TAGCCGGCTGC)	0.00655
TTGCCGGCATGGACCGGTTTTCCCGGTAATCCGTATTTGGC (site TCGCCGGCTGC)	0
TTGCCGGCATGGACCGGTTTTCCCGGTAATCCGTATTTGGC (site TGGCCGGCTGC)	0
TTGCCGGCATGGACCGGTTTTCCCGGTAATCCGTATTTGGC (site TTGCCGGCTGC)	0
TTGCCGTCATGGACCGGTTTTCCCGGTAATCCGTATTTGGC (site TTGCCGTCTGC)	0
TTGCTAGCATGGACCGGTTTTCCCGGTAATCCGTATTTGAA (site TAGCTAGCTTT)	0.016
TTGCTAGCATGGACCGGTTTTCCCGGTAATCCGTATTTGAA (site TCGCTAGCTTT)	0.0147
TTGCTAGCATGGACCGGTTTTCCCGGTAATCCGTATTTGAA (site TGGCTAGCTTT)	0.0255
TTGCTAGCATGGACCGGTTTTCCCGGTAATCCGTATTTGAA (site TTGCTAGCTTT)	0.252
TTGCTGTCATGGACCGGTTTTCCCGGTAATCCGTATTTGAT (site TTGCTGTCTAT)	0.00531
TTGGAATCATGGACCGGTTTTCCCGGTAATCCGTATTTGCA (site TTGGAATCTTG)	2.76
TTGGCACCATGGACCGGTTTTCCCGGTAATCCGTATTTGAG (site TTGGCACCTCT)	0.0325
TTGGCGGCATGGACCGGTTTTCCCGGTAATCCGTATTTGCT (site TTAGCGGCTAG)	1.3
